# Assays:
# Assay type in all cases: functional
# [1] = test system: NCI-H23; assay: Growth inhibition of human NCI-H23 cells assessed as cell growth at 100 uM after 48 hrs by SRB assay relative to control; settings: NCI-H23, 48 h, read-out: Activity
# [2] = test system: SW-620; assay: Growth inhibition of human SW620 cells assessed as cell growth at 0.1 uM after 48 hrs by SRB assay relative to control; settings: SW-620, 48 h, read-out: Activity
# [3] = test system: EKVX; assay: Growth inhibition of human EKVX cells assessed as cell growth at 10 uM after 48 hrs by SRB assay relative to control; settings: read-out: Activity
# [4] = test system: NCI-H23; assay: Growth inhibition of human NCI-H23 cells assessed as cell growth at 1 uM after 48 hrs by SRB assay relative to control; settings: NCI-H23, 48 h, read-out: Activity
# [5] = test system: SNB-75; assay: Cytotoxicity against human SNB75 cells assessed as growth inhibition after 48 hrs by SRB assay; settings: SNB-75, 48 h
# [6] = test system: OVCAR-8; assay: Cytotoxicity against human OVCAR8 cells assessed as growth inhibition after 48 hrs by SRB assay; settings: OVCAR-8, 48 h
# [7] = test system: IGROV-1; assay: Growth inhibition of human IGROV1 cells assessed as cell growth at 1 uM after 48 hrs by SRB assay relative to control; settings: IGROV-1, 48 h, read-out: Activity
# [8] = test system: OVCAR-4; assay: Cytotoxicity against human OVCAR4 cells assessed as growth inhibition after 48 hrs by SRB assay; settings: OVCAR-4, 48 h
# [9] = test system: KM12; assay: Growth inhibition of human KM12 cells assessed as cell growth at 1 uM after 48 hrs by SRB assay relative to control; settings: KM12, 48 h, read-out: Activity
# [10] = test system: HCT-15; assay: Growth inhibition of human HCT15 cells assessed as cell growth at 100 uM after 48 hrs by SRB assay relative to control; settings: HCT-15, 48 h, read-out: Activity
# [11] = test system: HT-29; assay: Growth inhibition of human HT-29 cells assessed as cell growth at 100 uM after 48 hrs by SRB assay relative to control; settings: HT-29, 48 h, read-out: Activity
# [12] = test system: MOLT-4; assay: Growth inhibition of human MOLT4 cells assessed as cell growth at 1 uM after 48 hrs by SRB assay relative to control; settings: MOLT-4, 48 h, read-out: Activity
# [13] = test system: MDA-MB-231; assay: Growth inhibition of human MDA-MB-231/ATCC cells assessed as cell growth at 0.01 uM after 48 hrs by SRB assay relative to control; settings: MDA-MB-231, 48 h, read-out: Activity
# [14] = test system: HCT-15; assay: Growth inhibition of human HCT15 cells assessed as cell growth at 1 uM after 48 hrs by SRB assay relative to control; settings: HCT-15, 48 h, read-out: Activity
# [15] = test system: UACC-257; assay: Growth inhibition of human UACC257 cells assessed as cell growth at 10 uM after 48 hrs by SRB assay relative to control; settings: UACC-257, 48 h, read-out: Activity
# [16] = test system: HOP-62; assay: Growth inhibition of human HOP62 cells assessed as cell growth at 0.1 uM after 48 hrs by SRB assay relative to control; settings: HOP-62, 48 h, read-out: Activity
# [17] = test system: SK-MEL-28; assay: Cytotoxicity against human SK-MEL-28 cells assessed as growth inhibition after 48 hrs by SRB assay; settings: SK-MEL-28, 48 h
# [18] = test system: PC-3; assay: Cytotoxicity against human PC3 cells assessed as growth inhibition after 48 hrs by SRB assay; settings: PC-3, 48 h
# [19] = test system: NCI/ADR-RES; assay: Growth inhibition of human NCI-ADR-RES cells assessed as cell growth at 1 uM after 48 hrs by SRB assay relative to control; settings: read-out: Activity
# [20] = test system: MOLT-4; assay: Growth inhibition of human MOLT4 cells assessed as cell growth at 10 uM after 48 hrs by SRB assay relative to control; settings: MOLT-4, 48 h, read-out: Activity
# [21] = test system: A498; assay: Cytotoxicity against human A498 cells assessed as growth inhibition after 48 hrs by SRB assay; settings: A498, 48 h
# [22] = test system: UACC-257; assay: Growth inhibition of human UACC257 cells assessed as cell growth at 0.1 uM after 48 hrs by SRB assay relative to control; settings: UACC-257, 48 h, read-out: Activity
# [23] = test system: SNB-75; assay: Growth inhibition of human SNB75 cells assessed as cell growth at 100 uM after 48 hrs by SRB assay relative to control; settings: SNB-75, 48 h, read-out: Activity
# [24] = test system: KM12; assay: Growth inhibition of human KM12 cells assessed as cell growth at 0.1 uM after 48 hrs by SRB assay relative to control; settings: KM12, 48 h, read-out: Activity
# [25] = test system: MDA-MB-468; assay: Growth inhibition of human MDA-MB-468 cells assessed as cell growth at 0.1 uM after 48 hrs by SRB assay relative to control; settings: MDA-MB-468, 48 h, read-out: Activity
# [26] = test system: SF-295; assay: Growth inhibition of human SF295 cells assessed as cell growth at 0.1 uM after 48 hrs by SRB assay relative to control; settings: SF-295, 48 h, read-out: Activity
# [27] = test system: HOP-92; assay: Growth inhibition of human HOP92 cells assessed as cell growth at 10 uM after 48 hrs by SRB assay relative to control; settings: HOP-92, 48 h, read-out: Activity
# [28] = test system: BT-549; assay: Growth inhibition of human BT549 cells assessed as cell growth at 1 uM after 48 hrs by SRB assay relative to control; settings: BT-549, 48 h, read-out: Activity
# [29] = test system: UACC-257; assay: Growth inhibition of human UACC257 cells assessed as cell growth at 0.01 uM after 48 hrs by SRB assay relative to control; settings: UACC-257, 48 h, read-out: Activity
# [30] = test system: UACC-62; assay: Growth inhibition of human UACC62 cells assessed as cell growth at 100 uM after 48 hrs by SRB assay relative to control; settings: UACC-62, 48 h, read-out: Activity
# [31] = test system: MOLT-4; assay: Growth inhibition of human MOLT4 cells assessed as cell growth at 0.1 uM after 48 hrs by SRB assay relative to control; settings: MOLT-4, 48 h, read-out: Activity
# [32] = read-out: LC50 (the source's name)
# [33] = read-out: pLC50 (the source's name) (converted)
smiles,measurement,setting,value
COc1ccc2c(c1)CCc1n[nH]c(-c3cc(OC)c(OC)c(OC)c3)c1-2,growth at 100 µM,[1],-42%
same,growth at 0.1 µM,[2],18%
same,growth at 10 µM,[3],37%
same,growth at 1 µM,[4],7%
same,GI50,[5]; read-out: GI50,< 0.01 µM
same,CC50,[5]; [32],> 100 µM
same,TGI,[5]; read-out: TGI,26.1 µM
same,GI50,[5]; read-out: pGI50 (converted),< 0.01 µM
same,CC50,[5]; [33],> 100 µM
same,TGI,[5]; read-out: pTGI (converted),26.3 µM
same,GI50,[6]; read-out: GI50,< 0.01 µM
same,LC50 (concentration killing 50% of cells),[6]; read-out: LC50,> 100 µM
same,TGI,[6]; read-out: TGI,15.4 µM
same,GI50,[6]; read-out: pGI50 (converted),< 0.01 µM
same,LC50 (concentration killing 50% of cells),[6]; read-out: pLC50 (converted),> 100 µM
same,TGI,[6]; read-out: pTGI (converted),15.5 µM
same,growth at 1 µM,[7],26%
same,GI50,[8]; read-out: GI50,< 0.01 µM
same,LC50,[8]; read-out: LC50,> 100 µM
same,TGI,[8]; read-out: TGI,56.5 µM
same,GI50,[8]; read-out: pGI50 (converted),< 0.01 µM
same,LC50,[8]; read-out: pLC50 (converted),> 100 µM
same,TGI,[8]; read-out: pTGI (converted),56.2 µM
same,growth at 1 µM,[9],5%
same,growth at 100 µM,[10],-41%
same,growth at 100 µM,[11],-72%
same,growth at 1 µM,[12],36%
same,growth at 0.01 µM,[13],34%
same,growth at 1 µM,[14],4%
same,growth at 10 µM,[15],56%
same,growth at 0.1 µM,[16],6%
same,GI50,[17]; read-out: GI50,1.62 µM
same,LC50 (concentration killing 50% of cells),[17]; read-out: LC50,68.8 µM
same,TGI,[17]; read-out: TGI,21.7 µM
same,GI50,[17]; read-out: pGI50 (converted),1.62 µM
same,LC50 (concentration killing 50% of cells),[17]; read-out: pLC50 (converted),69.2 µM
same,TGI,[17]; read-out: pTGI (converted),21.9 µM
same,GI50,[18]; read-out: GI50,< 0.01 µM
same,CC50,[18]; [32],> 100 µM
same,TGI,[18]; read-out: TGI,17.8 µM
same,GI50,[18]; read-out: pGI50 (converted),< 0.01 µM
same,CC50,[18]; [33],> 100 µM
same,TGI,[18]; read-out: pTGI (converted),17.8 µM
same,growth at 1 µM,[19],-9%
same,growth at 10 µM,[20],31%
same,GI50,[21]; read-out: GI50,< 0.01 µM
same,CC50,[21]; [32],55.9 µM
same,TGI,[21]; read-out: TGI,< 0.01 µM
same,GI50,[21]; read-out: pGI50 (converted),< 0.01 µM
same,CC50,[21]; [33],56.2 µM
same,TGI,[21]; read-out: pTGI,< 0.01 µM
same,growth at 0.1 µM,[22],51%
same,growth at 100 µM,[23],-30%
same,growth at 0.1 µM,[24],10%
same,growth at 0.1 µM,[25],-2%
same,growth at 0.1 µM,[26],5%
same,growth at 10 µM,[27],42%
same,growth at 1 µM,[28],3%
same,growth at 0.01 µM,[29],47%
same,growth at 100 µM,[30],-76%
same,growth at 0.1 µM,[31],35%

# From ChEMBL document CHEMBL4346757, “Synthesis and biological evaluation of 7-methoxy-1-(3,4,5-trimethoxyphenyl)-4,5-dihydro-2H-benzo[e]indazoles as new colchicine site inhibitors” (Bioorg Med Chem Lett, 2019)
